{"source": "patent US20250327794A1", "about": "“FLUOROMETRIC METHODS FOR DETECTION OF ALLERGIC SENSITIVITY TO ENVIRONMENTAL, FOODSTUFF, AND MEDICAMENT STIMULANTS” (CELL SCIENCE SYSTEMS CORPORATION, priority 2022, published 2025)", "key": {"[1]": {"system": "Basophils (CD63+/CD203c+)", "test": "Basophil activation by COVID-19 vaccines and vaccine components, blood of a hypersensitive subject", "format": "cell-based, human", "conditions": "subject with known allergic reaction to mRNA-1273 booster"}, "Neutrophils (CD11b+)": {"system": "Neutrophils (CD11b+)", "format": "cell-based, human"}}}
{"compound": "CCCCCCCCC(CCCCCC)C(=O)OCCCCCCN(CCCCO)CCCCCCOC(=O)C(CCCCCC)CCCCCCCC", "note": "(stereo not shown) [ALC0315]", "values": [{"measurement": "basophil activation and gross granulocyte activation in response to vaccine components", "setting": "[1]", "value": "marked increase"}, {"measurement": "percent neutrophil activation versus control, vaccine components", "setting": "Neutrophils (CD11b+)", "value": "higher percent neutrophil activation versus control"}]}
{"compound": "2-[(polyethylene glycol)-2000]-N,N-ditetradecylacetamide [ALC0159]", "values": [{"measurement": "basophil activation and gross granulocyte activation in response to vaccine components", "setting": "[1]", "value": "marked increase"}, {"measurement": "percent neutrophil activation versus control, vaccine components", "setting": "Neutrophils (CD11b+)", "value": "higher percent neutrophil activation versus control"}]}
{"compound": "CCO", "note": "[ethanol]", "values": [{"measurement": "percent neutrophil activation versus control, vaccine components", "setting": "Neutrophils (CD11b+)", "value": "did not"}]}
{"compound": "2,2-dimyristoyl-rac-glycero3-methoxypolyethylene glycol-2000 [PEG2000-DMG]", "values": [{"measurement": "basophil activation and gross granulocyte activation in response to vaccine components", "setting": "[1]", "value": "marked increase"}, {"measurement": "percent neutrophil activation versus control, vaccine components", "setting": "Neutrophils (CD11b+)", "value": "higher percent neutrophil activation versus control"}]}
{"compound": "2-hydroxypropyl-β-cyclodextrin [HBCD]", "values": [{"measurement": "percent neutrophil activation versus control, vaccine components", "setting": "Neutrophils (CD11b+)", "value": "higher percent neutrophil activation versus control"}]}
{"compound": "polysorbate-80 [PS80]", "values": [{"measurement": "basophil activation and gross granulocyte activation in response to vaccine components", "setting": "[1]", "value": "marked increase"}, {"measurement": "percent neutrophil activation versus control, vaccine components", "setting": "Neutrophils (CD11b+)", "value": "higher percent neutrophil activation versus control"}]}
{"compound": "CCCCCCCCCCCCCCCCCC(=O)OC[C@H](COP(=O)([O-])OCC[N+](C)(C)C)OC(=O)CCCCCCCCCCCCCCCCC", "note": "[DSPC, 1,2-diastearoyl-sn-glycero-3-phosphocholine]", "values": [{"measurement": "percent neutrophil activation versus control, vaccine components", "setting": "Neutrophils (CD11b+)", "value": "did not"}]}
{"compound": "CCCCCCCCCCCOC(=O)CCCCCN(CCO)CCCCCCCC(=O)OC(CCCCCCCC)CCCCCCCC", "note": "[SM102]", "values": [{"measurement": "basophil activation and gross granulocyte activation in response to vaccine components", "setting": "[1]", "value": "marked increase"}, {"measurement": "percent neutrophil activation versus control, vaccine components", "setting": "Neutrophils (CD11b+)", "value": "higher percent neutrophil activation versus control"}]}
